# Test results reported in patent publication US9371294B2, “Cycloalkenyl aryl derivatives for CETP inhibitor” (CHONG KUN DANG PHARMACEUTICAL CORP., priority 2011, dated 2016).
# Biological target: T1, cholesteryl ester transfer protein (Homo sapiens, UniProt P11597)
# T1 construct: As a source of cholesteryl ester transfer protein, plasma from healthy humans was used; from tissue; host or cells: plasma from healthy humans
# T1 sequence (P11597 18-493): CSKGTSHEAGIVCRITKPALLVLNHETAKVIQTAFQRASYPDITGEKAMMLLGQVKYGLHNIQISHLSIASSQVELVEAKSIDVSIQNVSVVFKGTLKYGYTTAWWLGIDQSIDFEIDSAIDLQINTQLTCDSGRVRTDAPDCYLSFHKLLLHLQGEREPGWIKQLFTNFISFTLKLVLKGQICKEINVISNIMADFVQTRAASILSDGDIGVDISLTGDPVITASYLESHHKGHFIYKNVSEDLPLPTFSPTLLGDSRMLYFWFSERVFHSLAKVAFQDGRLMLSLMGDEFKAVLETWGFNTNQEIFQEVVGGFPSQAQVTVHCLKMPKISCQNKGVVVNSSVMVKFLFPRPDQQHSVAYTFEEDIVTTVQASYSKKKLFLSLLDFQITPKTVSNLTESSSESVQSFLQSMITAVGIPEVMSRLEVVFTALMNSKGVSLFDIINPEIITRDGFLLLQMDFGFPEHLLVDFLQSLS
# Assay: In vitro test for the ability to inhibit cholesteryl ester transfer
# Type: biochemical
# Conditions: [3H]-cholesteryl oleate transfer from rHDL-agarose to LDL; human plasma as CETP source; 37° C.; 16-10000 nM, duplicate
# Excerpt: In Vitro Test for the Ability to Inhibit Cholesteryl Ester Transfer
# 1. Preparation of Cholesteryl Ester Donor
# In order to prepare a cholesteryl ester donor to be used in the test, a radiolabeled recombinant HDL containing [^3H]-cholesteryl oleate (GE healthcare, TRK886, 3.5 μCi/mg of apoA-1) and apoA-1 was synthesized. Then, rHDL-agarose obtained by immobilizing the recombinant HDL with CNBr-activated Sepharose 4B resin (Amersham Biosciences, Sweden) was used in the test.
# 2. Cholesteryl Ester Transfer Test
# As a source of cholesteryl ester transfer protein, plasma from healthy humans was used, and as cholesteryl ester receptor, LDL from healthy humans was used. Each of test compounds was added to be final concentrations of 16, 80, 400, 2000 and 10000 nM and tested in duplicate. In order to test cholesteryl ester transfer, 20 μl of plasma, 50 μl of LDL (0.25 mg/ml) and 50 μl of rHDL-agarose (0.25 mg/ml) were mixed with each other, and a solution of each test compound was added thereto and reacted thereto at 37° C. Then, the reaction solution was centrifuged at 4° C. for 3 minutes, thereby the reaction was stopped. 150 μl of the supernatant was transferred into a 96-well plate for radioactivity measurement, and the radioactivity thereof was measured with a beta-ray detector.
# 3. Statistical Processing
# The ratio of [^3H]-cholesteryl oleate transferred from HDL to LDL was determined, and based on the determined ratio, the IC50 value of each compound was determined using GraphPad Prism 5.0.
row,SMILES,IC50
1,"COc1cc(F)c(OCC(F)(F)F)cc1C1=C(CN2C(=O)O[C@H](c3cc(C(F)(F)F)cc(C(F)(F)F)c3)[C@@H]2C)CC(C)(C)CC1 [Compound 222, (4S,5R)-5-(3,5-bis(trifluoromethyl)phenyl)-3-((2-(4-fluoro-2-methoxy-5-(2,2,2-trifluoroethoxy)phenyl)-5,5-dimethylcyclohex-1-enyl)methyl)-4-methyloxazolidin-2-one]",40 nM
2,"COc1cc2c(cc1C1=C(CN3C(=O)O[C@H](c4cc(C(F)(F)F)cc(C(F)(F)F)c4)[C@@H]3C)CC(C)(C)CC1)OCO2 [Compound 223, (4S,5R)-5-(3,5-bis(trifluoromethyl)phenyl)-3-((2-(6-methoxybenzo[d][1,3]dioxol-5-yl)-5,5-dimethylcyclohex-1-enyl)methyl)-4-methyloxazolidin-2-one]",100 nM
3,"COc1cc(C(F)(F)F)c(N(C)C(=O)C(F)(F)F)cc1C1=C(CN2C(=O)O[C@H](c3cc(C(F)(F)F)cc(C(F)(F)F)c3)[C@@H]2C)CC(C)(C)CC1 [Compound 227, N-(5-(2-(((4S,5R)-5-(3,5-bis(trifluoromethyl)phenyl)-4-methyl-2-oxooxazolidin-3-yl)methyl)-4,4-dimethylcyclohex-1-enyl)-4-methoxy-2-(trifluoromethyl)phenyl)-2,2,2-trifluoro-N-methylacetamide]",140 nM
4,"COc1cc(F)c(C(C)C)cc1C1=C(CN2C(=O)O[C@H](c3cc(C(F)(F)F)cc(C(F)(F)F)c3)[C@@H]2C)CN(C)CC1 [Compound 231, (4S,5R)-5-(3,5-bis(trifluoromethyl)phenyl)-3-((4-(4-fluoro-5-isopropyl-2-methoxyphenyl)-1-methyl-1,2,5,6-tetrahydropyridin-3-yl)methyl)-4-methyloxazolidin-2-one]",700 nM
5,"CCc1cc(OC)c(C2=C(CN3C(=O)O[C@H](c4cc(C(F)(F)F)cc(C(F)(F)F)c4)[C@@H]3C)CC(C)(C)CC2)cc1N(C)C(C)=O [Compound 234, N-(5-(2-(((4S,5R)-5-(3,5-bis(trifluoromethyl)phenyl)-4-methyl-2-oxooxazolidin-3-yl)methyl)-4,4-dimethylcyclohex-1-enyl)-2-ethyl-4-methoxyphenyl)-N-methylacetamide]",20 nM
6,"COc1cc(F)c(C2CC2)cc1C1=C(CN2C(=O)O[C@H](c3cc(C(F)(F)F)cc(C(F)(F)F)c3)[C@@H]2C)CC(C)(C)CC1 [Compound 237, (4S,5R)-5-(3,5-bis(trifluoromethyl)phenyl)-3-((2-(5-cyclopropyl-4-fluoro-2-methoxyphenyl)-5,5-dimethylcyclohex-1-enyl)methyl)-4-methyloxazolidin-2-one]",9 nM
7,"COc1cc(F)c(OC(C)C)cc1C1=C(CN2C(=O)O[C@H](c3cc(C(F)(F)F)cc(C(F)(F)F)c3)[C@@H]2C)CC(C)(C)CC1 [Compound 241, (4S,5R)-5-(3,5-bis(trifluoromethyl)phenyl)-3-((2-(4-fluoro-5-isopropoxy-2-methoxyphenyl)-5,5-dimethylcyclohex-1-enyl)methyl)-4-methyloxazolidin-2-one]",390 nM
8,"COc1ccc(N(C)C(=O)C(C)(C)OC(C)=O)cc1C1=C(CN2C(=O)O[C@H](c3cc(C(F)(F)F)cc(C(F)(F)F)c3)[C@@H]2C)CC(C)(C)CC1 [Compound 243, 1-((3-(2-(((4S,5R)-5-(3,5-bis(trifluoromethyl)phenyl)-4-methyl-2-oxooxazolidin-3-yl)methyl)-4,4-dimethylcyclohex-1-enyl)-4-methoxyphenyl)(methyl)amino)-2-methyl-1-oxopropan-2-yl acetate]",9 nM
9,"COc1ccc(N(C)C(=O)C(C)(C)O)cc1C1=C(CN2C(=O)O[C@H](c3cc(C(F)(F)F)cc(C(F)(F)F)c3)[C@@H]2C)CC(C)(C)CC1 [Compound 244, N-(3-(2-(((4S,5R)-5-(3,5-bis(trifluoromethyl)phenyl)-4-methyl-2-oxooxazolidin-3-yl)methyl)-4,4-dimethylcyclohex-1-enyl)-4-methoxyphenyl)-2-hydroxy-N,2-dimethylpropanamide]",20 nM
10,"COc1cc(F)c(C(C)C)cc1C1=C(CN2C(=O)O[C@H](c3cc(C(F)(F)F)cc(C(F)(F)F)c3)[C@@H]2C)CN(C(F)(F)F)CC1 [Compound 245, (4S,5R)-5-(3,5-bis(trifluoromethyl)phenyl)-3-((4-(4-fluoro-5-isopropyl-2-methoxyphenyl)-1-(trifluoromethyl)-1,2,5,6-tetrahydropyridin-3-yl)methyl)-4-methyloxazolidin-2-one]",810 nM
11,"COc1cc(C)c(N(C)C(C)=O)cc1C1=C(CN2C(=O)O[C@H](c3cc(C(F)(F)F)cc(C(F)(F)F)c3)[C@@H]2C)CC(C)(C)CC1 [Compound 249, N-(5-(2-(((4S,5R)-5-(3,5-bis(trifluoromethyl)phenyl)-4-methyl-2-oxooxazolidin-3-yl)methyl)-4,4-dimethylcyclohex-1-enyl)-4-methoxy-2-methylphenyl)-N-methylacetamide]",1 nM
12,"COc1cc(C)c(N(C)S(=O)(=O)C(F)(F)F)cc1C1=C(CN2C(=O)O[C@H](c3cc(C(F)(F)F)cc(C(F)(F)F)c3)[C@@H]2C)CC(C)(C)CC1 [Compound 251, N-(5-(2-(((4S,5R)-5-(3,5-bis(trifluoromethyl)phenyl)-4-methyl-2-oxooxazolidin-3-yl)methyl)-4,4-dimethylcyclohex-1-enyl)-4-methoxy-2-methylphenyl)trifluoro-N-methylmethanesulfonamide]",690 nM
13,"COc1cc(F)c(C(C)C)cc1C1=C(CN2C(=O)O[C@H](c3cc(C(F)(F)F)cc(C(F)(F)F)c3)[C@@H]2C)CN(C(C)C)CC1 [Compound 265, (4S,5R)-5-(3,5-bis(trifluoromethyl)phenyl)-3-((4-(4-fluoro-5-isopropyl-2-methoxyphenyl)-1-isopropyl-1,2,5,6-tetrahydropyridin-3-yl)methyl)-4-methyloxazolidin-2-one]",164 nM
14,"COc1cc(F)c(C(C)C)cc1C1=C(CN2C(=O)O[C@H](c3cc(C(F)(F)F)cc(C(F)(F)F)c3)[C@@H]2C)CN(CC(F)(F)F)CC1 [Compound 268, (4S,5R)-5-(3,5-bis(trifluoromethyl)phenyl)-3-((4-(4-fluoro-5-isopropyl-2-methoxyphenyl)-1-(2,2,2-trifluoroethyl)-1,2,5,6-tetrahydropyridin-3-yl)methyl)-4-methyloxazolidin-2-one]",46 nM
15,"COC(=O)CCc1ccc(OC)c(C2=C(CN3C(=O)O[C@H](c4cc(C(F)(F)F)cc(C(F)(F)F)c4)[C@@H]3C)CC(C)(C)CC2)c1 [Compound 272, methyl 3-(3-(2-(((4S,5R)-5-(3,5-bis(trifluoromethyl)phenyl)-4-methyl-2-oxooxazolidin-3-yl)methyl)-4,4-dimethylcyclohex-1-enyl)-4-methoxyphenyl)propanoate]",222 nM
16,"COc1ccc(CCC(=O)O)cc1C1=C(CN2C(=O)O[C@H](c3cc(C(F)(F)F)cc(C(F)(F)F)c3)[C@@H]2C)CC(C)(C)CC1 [Compound 273, 3-(3-(2-(((4S,5R)-5-(3,5-bis(trifluoromethyl)phenyl)-4-methyl-2-oxooxazolidin-3-yl)methyl)-4,4-dimethylcyclohex-1-enyl)-4-methoxyphenyl)propanoic acid]",217 nM
17,"COC(=O)C(C)(C)Cc1ccc(OC)c(C2=C(CN3C(=O)O[C@H](c4cc(C(F)(F)F)cc(C(F)(F)F)c4)[C@@H]3C)CC(C)(C)CC2)c1 [Compound 285, methyl 3-(3-(2-(((4S,5R)-5-(3,5-bis(trifluoromethyl)phenyl)-4-methyl-2-oxooxazolidin-3-yl)methyl)-4,4-dimethylcyclohex-1-enyl)-4-methoxyphenyl)-2,2-dimethylpropanoate]",33 nM
18,"COc1ccc(CCC#N)cc1C1=C(CN2C(=O)O[C@H](c3cc(C(F)(F)F)cc(C(F)(F)F)c3)[C@@H]2C)CC(C)(C)CC1 [Compound 300, 3-(3-(2-(((4S,5R)-5-(3,5-bis(trifluoromethyl)phenyl)-4-methyl-2-oxooxazolidin-3-yl)methyl)-4,4-dimethylcyclohex-1-enyl)-4-methoxyphenyl)propanenitrile]",1 nM
19,"COc1cc(F)c(C2(C)CC2)cc1C1=C(CN2C(=O)O[C@H](c3cc(C(F)(F)F)cc(C(F)(F)F)c3)[C@@H]2C)CC2(CC1)CC2 [Compound 303, (4S,5R)-5-(3,5-bis(trifluoromethyl)phenyl)-3-((6-(4-fluoro-2-methoxy-5-(1-methylcyclopropyl)phenyl)spiro[2.5]oct-5-en-5-yl)methyl)-4-methyloxazolidin-2-one]",5 nM
